Test: Phase 3 randomized, double-blind, placebo- and active-controlled trial of meloxicam/rizatriptan in acute treatment of migraine (Example 1, MOMENTUM)
[1] = treatment-emergent adverse event

CN(C)CCc1c[nH]c2ccc(Cn3cncn3)cc12 [Rizatriptan]
proportion of patients experiencing pain relief ([…] after dosing, single dose): 52.5%
percentage of patients experiencing sustained pain relief (from 2 hours to 24 hours after dosing): 43.9%
proportion of patients with sustained pain freedom (from 2 hours to 48 hours): 8.8%
Any Treatment-Emergent Adverse Event, number of subjects (single dose): 67 subjects
Dizziness, % of subjects [1]: 2.1%
Dizziness, number of subjects [1]: 9 subjects
Nausea, % of subjects [1]: 4.8%
Nausea, number of subjects [1]: 21 subjects
Somnolence, % of subjects [1]: 2.1%
Somnolence, number of subjects [1]: 9 subjects
